From BindingDB's records for patent US20240252496 (The Children’s Medical Center, 2024)

Assays:
Assay in all cases: Conditioned place preference (CPP) assay
Histone deacetylase 3 = Histone deacetylase 3 (Homo sapiens, UniProt O15379)
Histone deacetylase 1 = Histone deacetylase 1 (Homo sapiens, UniProt Q13547)
Histone deacetylase 2 = Histone deacetylase 2 (Homo sapiens, UniProt Q92769)
Sequence of Histone deacetylase 2 (Q92769 whole entry): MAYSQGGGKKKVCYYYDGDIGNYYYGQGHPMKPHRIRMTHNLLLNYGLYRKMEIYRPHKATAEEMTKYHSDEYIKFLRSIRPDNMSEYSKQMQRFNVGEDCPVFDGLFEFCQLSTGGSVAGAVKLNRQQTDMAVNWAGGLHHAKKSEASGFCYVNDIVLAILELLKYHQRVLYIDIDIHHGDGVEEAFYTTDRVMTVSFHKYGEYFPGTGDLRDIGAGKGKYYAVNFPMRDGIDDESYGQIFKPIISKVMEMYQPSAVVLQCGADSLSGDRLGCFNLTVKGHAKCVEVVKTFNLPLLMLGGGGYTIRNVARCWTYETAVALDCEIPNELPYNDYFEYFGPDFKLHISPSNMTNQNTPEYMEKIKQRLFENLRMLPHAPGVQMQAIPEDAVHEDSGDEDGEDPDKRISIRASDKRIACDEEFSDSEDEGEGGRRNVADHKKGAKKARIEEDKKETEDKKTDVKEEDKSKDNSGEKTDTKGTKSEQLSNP

Sequence of Histone deacetylase 1 (Q13547 whole entry): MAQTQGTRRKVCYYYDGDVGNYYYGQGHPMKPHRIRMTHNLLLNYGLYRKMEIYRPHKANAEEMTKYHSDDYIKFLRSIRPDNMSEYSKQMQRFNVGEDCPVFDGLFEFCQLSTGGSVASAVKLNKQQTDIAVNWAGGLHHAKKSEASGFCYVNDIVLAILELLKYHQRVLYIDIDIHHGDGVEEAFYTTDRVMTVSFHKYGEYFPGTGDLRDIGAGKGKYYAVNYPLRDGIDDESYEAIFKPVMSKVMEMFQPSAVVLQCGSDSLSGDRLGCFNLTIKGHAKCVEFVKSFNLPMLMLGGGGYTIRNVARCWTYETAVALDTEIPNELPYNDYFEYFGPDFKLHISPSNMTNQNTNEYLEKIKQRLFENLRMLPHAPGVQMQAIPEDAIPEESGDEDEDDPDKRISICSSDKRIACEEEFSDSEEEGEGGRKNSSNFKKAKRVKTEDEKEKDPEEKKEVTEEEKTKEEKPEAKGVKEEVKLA
Sequence of Histone deacetylase 3 (O15379 whole entry): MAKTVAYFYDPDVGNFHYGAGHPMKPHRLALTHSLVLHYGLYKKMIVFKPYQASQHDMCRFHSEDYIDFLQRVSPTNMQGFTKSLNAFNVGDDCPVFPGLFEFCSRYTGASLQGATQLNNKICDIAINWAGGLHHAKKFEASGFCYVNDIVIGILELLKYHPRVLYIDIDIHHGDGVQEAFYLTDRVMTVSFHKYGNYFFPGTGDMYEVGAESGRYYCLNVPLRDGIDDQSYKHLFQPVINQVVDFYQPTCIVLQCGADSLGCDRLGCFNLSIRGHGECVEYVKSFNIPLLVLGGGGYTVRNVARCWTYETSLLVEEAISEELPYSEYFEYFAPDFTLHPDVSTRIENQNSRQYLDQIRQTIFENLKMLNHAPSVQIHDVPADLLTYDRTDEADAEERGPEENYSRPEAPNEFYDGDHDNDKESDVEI

- IC50 (Histone deacetylase 3): 850 nM
- IC50 (Histone deacetylase 1): 268 nM
- IC50 (Histone deacetylase 2): 530 nM
Structure (SMILES): COC(c1ccc(F)cc1)(c1ccc(F)cc1)c1ccc(C(=O)NCCCCCCC(=O)NO)cc1 [US20240252496, Example ACY-257]
